Data reported in patent publication US20100105103A1, “ALCOHOL TOLERANT ESCHERICHIA COLI AND METHODS OF PREPARATION THEREOF” (NATIONAL TAIWAN UNIVERSITY, priority 2008, published 2010).

Columns and labels:
[1] = test system: E. coli JH017 (potG- mutant overexpressing YqhD); assay: Growth curve of JH017 strain with various concentrations of alcohols (OD595); assay type: cell-based, Escherichia coli
Description: (§1) After 2 h of induction, the cultures were diluted to 0.35 OD595 in a fresh LB medium supplemented with kanamycin and 50 μg/ml of chloraphenicol, with the addition of 0-18% ethanol, 0-5% 1-propanol, 0-5% iso-propanol, 0-7% 1-butanol, and 0-7% iso-butanol in triplicate.
(§2) Growth of JH016 was inhibited by 1-butanol at concentrations at least 2.5% (v/v), isobutanol at least 4%, 1-propanol at least 5%, isopropanol at least 5%, or ethanol at least 10%. And the growth of JH017 was inhibited by 1-butanol at concentrations at least 2% (v/v), isobutanol at least 3.5%, 1-propanol at least 5%, isopropanol at least 5%, or ethanol at least 12%. The abovementioned concentration of alcohol would for sure inhibit the growth of wild type E. coli.

[2] = test system: E. coli JH007 (ydhF- mutant overexpressing PhoH); assay: Growth curve of JH007 strain with various concentrations of alcohols (OD595); assay type: cell-based, Escherichia coli; settings: for alcohol concentration at which growth of JH007 was inhibited: JH007, IPTG-induced, LB medium, 37° C., OD595
Description: as §1
Referring to FIG. 7, cell growth condition of JH007 strain was monitored with OD595 with the changes of cell turbidities.

[3] = test system: E. coli JH016 (potG- mutant overexpressing Hmp); assay: Growth curve of JH016 strain with various concentrations of alcohols (OD595); assay type: cell-based, Escherichia coli; settings: for alcohol concentration at which growth of JH016 was inhibited: JH016, OD595
Description: as §1, §2

[4] = test system: E. coli wild-type strain BW25113; settings: wild type E. coli BW25113, LB medium, OD600
Description: E. coli wild-type strain BW25113 was cultured overnight and then inoculated into a fresh LB medium containing 0-10% (v/v) of 1-butanol. Cells were cultivated with shaking and the optical density at 600 nm was measured every 15 minutes.

E. coli JH007 = settings: JH007, 2% v/v 1-butanol, 4 h, IPTG-induced vs uninduced
Description: These 18 strains were cultivated overnight then inoculated into LB media supplemented with 30 μg/ml of kanamycin and 50 μg/ml of chloraphenicol. IPTG were added into the media at the final concentration of 0.1 mM. […] Cells were incubated at 37° C. with shaking and the optical density was measured at the beginning and after 4 h. The survival rates were calculated using the following formula.
Survival rate=difference of OD595 between mutants with IPTG induced (4 h-0 h)/difference of OD595 between mutants without IPTG induced (4 h-0 h)×100%

wild type E. coli = settings: conventional fermentation process; cited from earlier work

## CC(C)CO [isobutanol]
[1]
  alcohol concentration at which growth of JH017 was inhibited: at least 3.5 % (v/v)
[2]
  alcohol concentration at which growth of JH007 was inhibited: at least 3.5 % (v/v)
[3]
  alcohol concentration at which growth of JH016 was inhibited: at least 4 % (v/v)

## 1-butanol
[4]
  concentration of 1-butanol at which growth was almost completely inhibited: ≥ 1.5 % (v/v)
[1]
  alcohol concentration at which growth of JH017 was inhibited: at least 2 % (v/v)
E. coli JH007
  1-butanol tolerance (survival rate) relative to control: 5.5 fold
[2]; JH007
  tolerance of 1-butanol concentration (up to): up to 5 % (v/v)
[2]
  alcohol concentration at which growth of JH007 was inhibited: at least 5 % (v/v)
[3]
  alcohol concentration at which growth of JH016 was inhibited: at least 2.5 % (v/v)
Wild type E. coli
  concentration of 1-butanol at which growth was inhibited: 1%

## CCCO [1-propanol]
[2]
  alcohol concentration at which growth of JH007 was inhibited: at least 6 % (v/v)

## CCO [ethanol]
[1]
  alcohol concentration at which growth of JH017 was inhibited: at least 12 % (v/v)
[3]; JH016
  tolerance of ethanol concentration (up to): up to 12 % (v/v)
[3]
  alcohol concentration at which growth of JH016 was inhibited: at least 10 % (v/v)
